Values of other authors as cited in paper PMC2891520 (The Journal of neuroscience : the official journal of the …, 2010).

Biological target: CaMKII (Homo sapiens, UniProt Q9UQM7)
Details: ref Vest et al., 2010

COc1ccc(S(=O)(=O)N(CCO)c2ccccc2CN(C)C/C=C/c2ccc(Cl)cc2)cc1 [KN93]
block of autonomous CaMKII activity once generated: does not block autonomous activity once it is generated
